Data reported in patent publication US9889135B2, “Companion diagnostic for CDK4 inhibitors” (Memorial Sloan-Kettering Cancer Center, priority 2013, dated 2018).

Experiments:
[1] = test system: DBTRG-05MG glioma cells; test: senescence-associated β-galactosidase staining; assay type: cell-based
Method: (§1) Cells were plated at a concentration of 25,000 per well in a 4-well chamber slides (Lab-Tek) and treated for seven days with drug or shRNA as described above and stained for senescence-associated β-galactosidase (Cell Signaling kit #9860). Cell number was quantitated by DAPI staining and β-galactosidase staining quantitated as a proportion of total cells. Senescence associated heterochromatic foci were quantitated after cells were fixed with 4% paraformaldehyde, permeabilized with 0.1% Triton, blocked with 2% FBS, and stained with antibodies against HP1γ (1:5000 dilution, 2MOD-1G6 Millipore). Senescent cells were identified by immunofluorescence after treatment of slides with anti-mouse secondary antibodies and quantitation of focal SAHF as a percent of total cells (Leica Upright Confocal SP5 confocal microscope). Actin was marked using phalloidin staining (1:500, Invitrogen) and cells were counterstained with DAPI. Cell area was measured by with Metamorph software to calculate relative area per cell.

[2] = test system: DKMG glioma cells; test: senescence-associated β-galactosidase staining; assay type: cell-based
Method: as §1

[3] = test system: MCF7 breast cancer cells; test: senescence-associated β-galactosidase staining; assay type: cell-based
Method: as §1

[4] = test system: SNB19 glioma cells; test: senescence-associated β-galactosidase staining; assay type: cell-based
Method: as §1

[5] = test system: T98G glioma cells; test: senescence-associated β-galactosidase staining; assay type: cell-based; details: after treatment
Method: as §1

[6] = test system: seven WD/DDLS cell lines; test: cell size, phalloidin staining and flow cytometry; assay type: cell-based, human; details: continued treatment, all seven cell lines
Method: as §1, with “FIGS. 10A-C. […] Cells” for “Cells”

[7] = test system: LS8107, LS7785-10, LS7785-1 and LS8313 cells; test: SA-β-gal and SAHF (HP1γ) senescence staining, non-responder lines; assay type: cell-based, human; details: LS7785-1, LS7785-10, LS8107 and LS8313; even at ten-fold increased concentration
Source text: Mean percentage standard deviation). […] (A) Senescence-associated β-galactosidase and (B) HP1γ staining for senescence associated heterochromatic foci (SAHF) formation was quantitated for three or more independent experiments for each cell line. […] Representative phase contrast micrographs of cells stained for SA-β-gal or immunofluorescence staining for HP1γ in two of the cell lines before (ctrl) and after (PD) drug treatment are shown in the insets of FIGS. 2A and 2B, respectively. (C) BrdU incorporation. […] Error bars represent the standard deviation of the mean calculated from three independent trials. […] Cell number was quantitated by DAPI staining and β-galactosidase staining quantitated as a proportion of total cells. Senescence associated heterochromatic foci were quantitated after cells were fixed with 4% paraformaldehyde, permeabilized with 0.1% Triton, blocked with 2% FBS, and stained with antibodies against HP1γ (1:5000 dilution, 2MOD-1G6 Millipore). Senescent cells were identified by immunofluorescence after treatment of slides with anti-mouse secondary antibodies and quantitation of focal SAHF as a percent of total cells (Leica Upright Confocal SP5 confocal microscope). […] Cell area was measured by with Metamorph software to calculate relative area per cell.

[8] = test system: MDM2 transcripts in WD/DDLS cell lines; test: MDM2 transcript levels by qPCR; assay type: cell-based, human; details: two days; each cell line
[9] = test system: p27 in responder and non-responder cells; test: p27 levels by immunoblot; assay type: cell-based, human
Source text: FIG. 22. Additional immunoblot analysis in responder and non-responder cells. […] Actin is a loading control. This experiment was repeated at least three times for each cell line.

[10] = test system: WD/DDLS; test: phase II clinical trial (NCT01209598), tumor response by CT scan, RECIST; assay type: in vivo, human
Method: (§2) FIG. 7. […] GAPDH serves as a loading control.
(§3) Antibodies against CDK4 (3F121), MDM2 (N-20 and SMP14), total RB (IF8), Cyclin A (H432), p16 (C20), p53 (DO-1 and Bp53-12), tubulin (C20) and FLAG (M2) were obtained from Santa Cruz Biotechnology, phospho-Rb 780 (#9307) from Cell Signalling, and ARF (3642) from Abeam, HAUSP (A300-033A) from Bethyl Laboratories. Treated cells were lysed with buffer composed of 50 mM Tris-HCl, pH7.4, 250 mM NaCl, 5 mM EDTA, 0.5% NP40, 2 mM PMSF, and supplemented with protease inhibitors. Eighty micrograms of protein were resolved by SDS-PAGE and transferred to PVDF membranes. Membranes were incubated overnight with antibodies (1:1000). […] Pre-treatment biopsies were collected within two weeks of the first dose and post-treatment biopsies collected after at last three weeks of treatment. Extracts were prepared in 50 mM Tris-HCl, pH7.4, 150 mM NaCl, 1 mM EDTA, 1% NP40, 0.25% sodium deoxycholate and supplemented with mini-protease inhibitor cocktail (Roche). Tumor response was assessed by reference radiologist by CT scan every six weeks for 36 weeks, and every 12 weeks thereafter.

[11] = test system: MDM2 in WD/DDLS tumor biopsies; test: MDM2 in pre- and post-treatment patient biopsies by immunoblot; assay type: in vivo, human
Method: as §2
as §3, with “Extracts were prepared in 50 mM Tris-HCl, pH7.4, 150 mM NaCl, 1 mM EDTA, 1% NP40, 0.25% sodium deoxycholate and supplemented with mini-protease inhibitor cocktail (Roche).” left out
Extracts were prepared in 50 mM Tris-HCl, pH7.4, 150 mM NaCl, 1 mM EDTA, 1% NP40, 0.25% sodium deoxycholate and supplemented with mini-protease inhibitor cocktail (Roche). Tumor response was assessed by reference radiologist by CT scan every six weeks for 36 weeks, and every 12 weeks thereafter.

[12] = test system: WD/DDLS; details: cited from earlier work

## CC(=O)c1c(C)c2cnc(Nc3ccc(N4CCNCC4)cn3)nc2n(C2CCCC2)c1=O [PD0332991]
[1]; 7 days of treatment
  PD-induced SA-β-gal: Y (Y, yes: the number of SA-β-gal cells increases at least 10X after 7 days of treatment)
[1]; seven days after exposure
  number of SA-β-gal cells: significant increase
[2]; 7 days of treatment
  PD-induced SA-β-gal: Y (Y, yes: the number of SA-β-gal cells increases at least 10X after 7 days of treatment)
[2]; seven days after exposure
  number of SA-β-gal cells: significant increase
[3]; 7 days of treatment
  PD-induced SA-β-gal: Y (Y, yes: the number of SA-β-gal cells increases at least 10X after 7 days of treatment)
[3]; seven days after exposure
  number of SA-β-gal cells: significant increase
[4]; 7 days of treatment
  PD-induced SA-β-gal: Y (Y, yes: the number of SA-β-gal cells increases at least 10X after 7 days of treatment)
[4]; seven days after exposure
  number of SA-β-gal cells: significant increase
[5]
  increase in the number of SA-β-gal cells: not observed
[6]
  cell size / cell volume: enlarged
[7]
  number of SA-β-gal or SAHF positive cells: no increase
[8]
  MDM2 transcripts: modestly reduced
[9]
  p27 levels: unchanged
[10]; of nine patients with pre- and post-treatment biopsies
  patients who performed well on the drug (RECIST): five
[10]; patient 1, RECIST response, as of March 2013, 125 mg daily for 21 days, seven days of rest
  tumor size decrease: greater than 60%
[11]; patients 1, 4, 7, and 8
  MDM2 levels in post- versus pre-treatment biopsies: reduced
[11]; patients 2, 3, and 9
  MDM2 levels in post- versus pre-treatment biopsies: unaffected
[12]; 30 WD/DDLS patients
  patients with prolonged stable disease: 66%
[12]; one patient
  time at which one patient achieved a RECIST partial response: 74 weeks
[12]; patients
  myelosuppression: common
  tolerability: generally well-tolerated
[12]; three other patients, favorable response that did not meet RECIST
  decrease in tumor size: at least 10%
